Data published in publication PMC9293909 (Nature Communications, 2022).
“And” between values parts separate entries of the source, which are not always exact repeats. Identical values can stand only once. Like-named read-outs stand apart in the source and are kept apart here.

Assays:
[1] = target: T1, hA1R I292^8.47 alanine mutant (Homo sapiens, UniProt P30542, I292A); test: cAMP inhibition, Flp-In-CHO hA1R I292A; type: cell-based; details: Fig4j; read-out: cAMP inhibition potency, 292A, Average (converted)
T1 construct: expressed in transfected cells
T1 sequence (P30542 whole entry I292A): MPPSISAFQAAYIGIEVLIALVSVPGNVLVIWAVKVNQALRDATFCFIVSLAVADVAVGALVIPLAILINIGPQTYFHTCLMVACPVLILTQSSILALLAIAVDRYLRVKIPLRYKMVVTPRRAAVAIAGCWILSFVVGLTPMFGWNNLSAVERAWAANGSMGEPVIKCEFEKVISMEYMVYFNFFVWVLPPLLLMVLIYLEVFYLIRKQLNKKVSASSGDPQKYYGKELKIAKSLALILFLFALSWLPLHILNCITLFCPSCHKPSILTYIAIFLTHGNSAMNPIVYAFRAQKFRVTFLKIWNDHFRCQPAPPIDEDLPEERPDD
Excerpt: (§1) Cell lines were maintained using standard subculturing routines as guided by the European Collection of Cell Culture (ECACC) and checked annually for mycoplasma infection using an EZ-PCR mycoplasma test kit from Biological Industries (Kibbutz Beit-Haemek, Israel). To investigate the signalling properties of the rat A3R (rA3R) and mutants of the human A1R (hA1R), stable cell lines were generated using Flp-In-CHO cells (ThermoFisher - R75807). Untagged hA1R from sigNanoLuciferase (Nluc)-A1R in pcDNA3.1+ and untagged rA3R from sigNluc-A3R in pcDNA3.1 + (both gifted by Dr Steve Briddon (University of Nottingham)) were cloned into the pcDNA5/FRT expression vector (Thermo Fisher Scientific). Mutations within the hA1R were made using the QuikChange Lightening Site-Directed Mutagenesis Kit (Agilent Technologies) in accordance with the manufacturer’s instructions. Constructs for generating Goa/b interfering and scrambled peptides were generated by PCR and cloned into the BamHI/HindIII site of pcDNA3.1- as described in Gilchrist et al.[60],. Prior to the initiator codon a Kozak sequence was included for enhanced translation. The peptide sequences used were: for Goa […], for Gob […], and for the scrambled peptide […] was used. Constructs were sequenced to confirm fidelity. […]

[2] = target: T2, hA1R R291^7.56 alanine mutant (Homo sapiens, UniProt P30542, R291A); test: cAMP inhibition, Flp-In-CHO hA1R R291A; type: cell-based; details: Fig4j
T2 construct: expressed in transfected cells
T2 sequence (P30542 whole entry R291A): as the sequence (P30542 whole entry I292A) above, with R291A, A292I counted along it
Excerpt: as §1

rA3R = target: T3, rA3R (Rattus norvegicus, UniProt P28647); test: NanoBRET competition binding with AV039; details: displacement of AV039; read-out: pKi rA3R (converted)
T3 construct: expressed in transfected cells; host or cells: Flp-In-CHO (ThermoFisher R75807), pcDNA5/FRT
T3 sequence (P28647 1-320): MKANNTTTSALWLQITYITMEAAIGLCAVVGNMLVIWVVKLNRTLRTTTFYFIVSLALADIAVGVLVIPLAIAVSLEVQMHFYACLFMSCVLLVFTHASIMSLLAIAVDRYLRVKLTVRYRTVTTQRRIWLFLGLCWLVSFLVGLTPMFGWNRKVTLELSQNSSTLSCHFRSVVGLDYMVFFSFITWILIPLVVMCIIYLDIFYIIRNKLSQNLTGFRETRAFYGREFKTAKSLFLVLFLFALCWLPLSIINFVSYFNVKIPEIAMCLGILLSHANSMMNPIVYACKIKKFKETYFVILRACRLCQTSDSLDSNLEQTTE
Method: Here data was fitted with the ‘two-site Ki model’, build into Prism to determine high affinity and low affinity values for the unlabelled agonists. […] BRET was measured following the addition of the Nluc substrate, Furimazine (0.1 μM).

hA1R:Goa = target: T4, hA1R:Goa (Homo sapiens, UniProt P30542); test: TRUPATH G protein dissociation BRET assay, Goa; type: cell-based; details: Fig2h
T4 construct: cDNA resource centre (pcDNA3.1-A1R)
T4 sequence (P30542 whole entry): as the sequence (P30542 whole entry I292A) above, with A292I counted along it
T4 sequence (P09471 2-354 partner limits assumed): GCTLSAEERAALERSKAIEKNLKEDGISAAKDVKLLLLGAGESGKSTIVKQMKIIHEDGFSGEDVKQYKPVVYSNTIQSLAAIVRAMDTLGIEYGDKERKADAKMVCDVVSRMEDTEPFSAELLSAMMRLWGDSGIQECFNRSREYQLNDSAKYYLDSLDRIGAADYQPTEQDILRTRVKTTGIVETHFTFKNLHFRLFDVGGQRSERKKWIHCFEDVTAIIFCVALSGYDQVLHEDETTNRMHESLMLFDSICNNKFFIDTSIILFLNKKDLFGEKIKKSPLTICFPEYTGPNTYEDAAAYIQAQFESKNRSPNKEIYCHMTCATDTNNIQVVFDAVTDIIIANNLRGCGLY
T4 sequence (P16520 whole entry partner): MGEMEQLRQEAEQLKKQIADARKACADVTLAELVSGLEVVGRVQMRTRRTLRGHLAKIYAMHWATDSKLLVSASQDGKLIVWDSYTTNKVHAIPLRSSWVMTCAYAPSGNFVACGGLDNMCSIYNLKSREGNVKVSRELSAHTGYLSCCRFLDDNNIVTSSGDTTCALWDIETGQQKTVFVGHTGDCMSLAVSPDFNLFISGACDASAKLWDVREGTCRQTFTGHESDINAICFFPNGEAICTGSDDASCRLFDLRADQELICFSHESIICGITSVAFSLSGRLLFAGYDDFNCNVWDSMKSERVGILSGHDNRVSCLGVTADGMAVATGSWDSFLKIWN
T4 sequence (Q9UK08 1-67 partner limits assumed): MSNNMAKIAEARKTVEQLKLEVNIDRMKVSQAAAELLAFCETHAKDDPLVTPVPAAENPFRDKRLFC
Method: Cells were plated in a density of 1,500,000 cells/well in a 6-well plate and grown in DMEM /F-12 GlutaMAX™ media (Thermo Fisher Scientific, UK) supplemented with 10% FBS (Sigma, UK) and 1% AA (Sigma, UK). After being grown overnight, cells in each well were transfected using polyethylenimine 25 kDa (PEI, Polysciences Inc., Germany) at a 6:1 ratio of PEI to DNA, diluted in 150 mM NaCl. […] Gɑ (either Goa-RLuc8, or Gob-RLuc8), Gβ3 and Gγ8-GFP2 constructs were purchased as part of the TRUPATH sensor kit from Addgene, pcDNA3.1-A1R was obtained from cDNA resource centre, and pcDNA3.1 (-) zeo was purchased from Invitrogen. After 24 h, cells were trypsinised and re-seeded onto poly-L-lysine (PLL)-coated white 96-well plates (Greiner, UK) at the density of 50,000 cells/well in a complete DMEM/F-12 medium. After grown overnight, the culture media was discarded and replaced with 80 μl assay buffer (1× Hank’s balanced salt solution (HBSS) with calcium, supplemented with 20 mM HEPES and 0.1% BSA at pH 7.4). The assay was started by adding 10 μl of coelenterazine 400a (Nanolight technology, USA) to a final concentration of 5 μM. The plates were then incubated in the dark for 5 min, prior to the addition of 10 μl compounds (in a range of 0.01 nM – 1 µM). […] BRET signal was recorded for 30 min on a Mithras LB940 plate reader allowing sequential integration of signal detected from GFP2 and Rluc8.

frog heart = test: Isolated frog heart preparation, heart rate; details: CPA 300 nM
Method: Young adult male Xenopus leavis frogs were obtained from Portsmouth Xenopus Resource Centre. […] The animals were dissected to reveal the heart and the pericardium was carefully removed. Heart contractions were measured with a force transducer (AD instruments). Heart rate was acquired via a PowerLab 26 T (AD instruments) controlled by LabChart 7 (AD instruments). The heart was regularly washed with Ringer solution and drugs were applied directly to the heart.

[3] = target: β-arrestin2 recruitment to hA1R (Homo sapiens, UniProt P30542); test: BRET β-arrestin2 recruitment to A1R, HEK 293T; type: cell-based
β-arrestin2 recruitment to hA1R, sequence (P30542 whole entry): as the sequence (P30542 whole entry I292A) above, with A292I counted along it

[4] = target: β-arrestin1 recruitment to hA1R (Homo sapiens, UniProt P30542); test: BRET β-arrestin1 recruitment to A1R, HEK 293T; type: cell-based
β-arrestin1 recruitment to hA1R, sequence (P30542 whole entry): as the sequence (P30542 whole entry I292A) above, with A292I counted along it

OC[C@H]1O[C@@H](n2cnc3c(N[C@@H]4CCC[C@H]4O)ncnc32)[C@H](O)[C@@H]1O [HOCPA, (2 R,3 R,4 S,5 R)−2-(6-{[(1 R,2 R)−2-hydroxycyclopentyl]amino}−9H-purin-9-yl)−5-(hydroxymethyl)oxolane-3,4-diol] was tested, and the IC50 [1] was 4.79 nM, the IC50 ([2]; individual replicate, read-out: cAMP inhibition potency, 291A (converted)) was 1.66 nM and 3.36 nM and 11.1 nM and 7.67 nM and 1.61 nM and 5.5 nM and 3.5 nM and the IC50 ([2]; read-out: cAMP inhibition potency, 291A, Average (converted)) was 3.98 nM. For the same compound, the Ki (rA3R) was 676 nM, the EC50 (hA1R:Goa; individual replicate, read-out: TRUPATH Goa potency (converted)) was 64.6 nM and 83.2 nM and 81.3 nM and 37.2 nM and 27.5 nM and 44.7 nM and 30.2 nM and the EC50 (hA1R:Goa; n 8, read-out: TRUPATH Goa potency, Average (converted)) was 45.7 nM.
In the case of OC[C@H]1O[C@@H](n2cnc3c(NC4CCCC4)ncnc32)[C@H](O)[C@@H]1O [CPA, N^6-Cyclopentyladenosine], the “reduction of heart rate” value (frog heart) is reported as 6.1 ± 0.1 BPM, the “β-arrestin2 recruitment at the A1R” value [3] is reported as “no β-arrestin recruitment” and the “β-arrestin1 recruitment at the A1R” value [4] is reported as “no β-arrestin recruitment”.
